Laboratory results published in patent US20260285859A1, “BI-CYCLIC PYRIMIDINE COMPOUNDS, METHODS AND USES THEREOF” (Zeno Management, Inc., priority 2023, published 2026).

What was measured:
WEE1 = WEE1 (Homo sapiens, UniProt P30291); assay: LanthaScreen Eu Kinase Binding Assay, WEE1
Protocol: (§1) Binding of the tracer to the kinase is detected using a europium-labeled anti-GST antibody, which binds to the fused tag on the kinase protein. […] Inhibitor binding to the kinase competes with tracer binding, resulting in loss of FRET from the donor/acceptor pairs.
(§2) Kinase/Antibody Mixtures and Tracer are diluted to a 2× and 4× working concentration, respectively in this same buffer. […] 0% displacement (no known inhibitor) and 100% displacement (highest concentration of known inhibitor) controls were included on each plate for maximum and minimum Emission Ratio determination, respectively. Dasatinib was used for both PKMYT1 and WEE1 as the known inhibitor.
(§3) IC50 determination was performed using a non-linear regression, variable slope (four parameter), inhibitor v. response equation (Prism 9.0).

PKMYT1 = target: T1, PKMYT1 (Homo sapiens, UniProt Q99640); assay: LanthaScreen Eu Kinase Binding Assay, PKMYT1
T1 sequence (Q99640 1-499): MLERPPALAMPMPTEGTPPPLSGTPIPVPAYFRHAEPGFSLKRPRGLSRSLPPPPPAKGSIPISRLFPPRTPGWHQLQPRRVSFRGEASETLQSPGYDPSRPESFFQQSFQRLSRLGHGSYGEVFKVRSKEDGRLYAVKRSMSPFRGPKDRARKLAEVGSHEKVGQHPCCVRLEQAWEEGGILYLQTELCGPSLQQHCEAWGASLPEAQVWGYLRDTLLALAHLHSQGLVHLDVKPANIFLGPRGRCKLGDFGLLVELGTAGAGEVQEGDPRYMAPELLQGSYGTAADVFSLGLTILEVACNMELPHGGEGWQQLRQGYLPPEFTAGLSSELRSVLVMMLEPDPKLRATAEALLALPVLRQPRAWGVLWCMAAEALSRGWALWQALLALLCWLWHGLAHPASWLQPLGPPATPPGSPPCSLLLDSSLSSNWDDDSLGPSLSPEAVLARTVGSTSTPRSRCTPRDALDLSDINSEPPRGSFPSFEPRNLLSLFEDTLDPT
Protocol: as §1, §2, §3

Sequence of WEE1 (P30291 whole entry): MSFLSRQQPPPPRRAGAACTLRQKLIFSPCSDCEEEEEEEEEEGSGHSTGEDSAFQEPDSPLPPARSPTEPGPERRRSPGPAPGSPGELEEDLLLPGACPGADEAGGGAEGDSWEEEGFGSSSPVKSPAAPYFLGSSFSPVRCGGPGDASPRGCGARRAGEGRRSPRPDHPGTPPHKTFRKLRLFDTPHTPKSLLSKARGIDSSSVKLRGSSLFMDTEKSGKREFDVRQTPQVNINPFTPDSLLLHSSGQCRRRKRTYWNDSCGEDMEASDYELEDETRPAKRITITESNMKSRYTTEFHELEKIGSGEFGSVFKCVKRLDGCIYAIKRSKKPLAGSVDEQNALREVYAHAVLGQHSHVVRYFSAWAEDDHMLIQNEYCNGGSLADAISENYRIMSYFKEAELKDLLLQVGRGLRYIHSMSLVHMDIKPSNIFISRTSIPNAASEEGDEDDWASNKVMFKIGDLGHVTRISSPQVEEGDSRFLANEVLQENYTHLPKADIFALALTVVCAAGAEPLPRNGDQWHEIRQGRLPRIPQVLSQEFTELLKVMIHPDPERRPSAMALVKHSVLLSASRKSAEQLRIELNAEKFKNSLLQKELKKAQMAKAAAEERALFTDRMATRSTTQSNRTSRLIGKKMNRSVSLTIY

Compound | IC50 (WEE1) | IC50 (PKMYT1)
Cc1ccc(O)c(C)c1-c1nc(N(C)C2(C(F)(F)F)CC2)cc2c(N)ncnc12 (single isomer, unassigned) [Compound 42-B] | 100 to 1000 nM | < 10 nM
Cc1ccc(O)c(C)c1-c1nc(N2CCCC2=O)cc2c(N)ncnc12 (single isomer, unassigned) [Compound 43-B] | > 1000 nM | < 10 nM
Cc1ccc(O)c(C)c1-c1nc(N(C)C2CCCC2)cc2c(N)ncnc12 (single isomer, unassigned) [Compound 44-B] | 100 to 1000 nM | < 10 nM
CC[C@H](C)N(C)c1cc2c(N)ncnc2c(-c2c(C)ccc(O)c2C)n1 (single isomer, unassigned) [Compound 45-B] | > 1000 nM | 10 to 100 nM
Cc1ccc(O)c(C)c1-c1nc(N(C)c2cnn(C)c2)cc2c(N)ncnc12 (single isomer, unassigned) [Compound 46-B] | > 1000 nM | < 10 nM
Cc1ccc(O)c(C)c1-c1nc(C(F)F)cc2c(N)ncnc12 (single isomer, unassigned) [Compound 48-B] | > 1000 nM | 10 to 100 nM
COc1cc2c(N)ncnc2c(-c2c(C)ccc(O)c2C)n1 (single isomer, unassigned) [Compound 49-B] | > 1000 nM | 10 to 100 nM
Cc1ccc(O)c(C)c1-c1nc(C(C)C)cc2c(N)ncnc12 (single isomer, unassigned) [Compound 50-B] | > 1000 nM | 10 to 100 nM
Cc1ccc(O)c(C)c1-c1c(C)c(N(C)C)cc2c(N)ncnc12 (single isomer, unassigned) [Compound 51-B] | > 1000 nM | 10 to 100 nM
Cc1cc2c(N)ncnc2c(-c2c(C)ccc(O)c2C)c1C (single isomer, unassigned) [Compound 52-B] | > 1000 nM | 10 to 100 nM
Cc1cc(-c2c(C)ccc(O)c2C)c2ncnc(N)c2c1 (single isomer, unassigned) [Compound 53-B] | > 1000 nM | 10 to 100 nM
Cc1ccc(O)c(C)c1-c1nc(N2CC[C@@](C)(F)C2)cc2c(N)ncnc12 (single isomer, unassigned) [Compound 54-B] | 100 to 1000 nM | < 10 nM
Cc1ccc(O)c(C)c1-c1nc(N2CC[C@](C)(F)C2)cc2c(N)ncnc12 (single isomer, unassigned) [Compound 55-B] | 100 to 1000 nM | < 10 nM
Cc1ccc(O)c(C)c1-c1nc(C2=CCOCC2)cc2c(N)ncnc12 (single isomer, unassigned) [Compound 56-B] | 100 to 1000 nM | < 10 nM
C=C(C)c1cc2c(N)ncnc2c(-c2c(C)ccc(O)c2C)n1 (single isomer, unassigned) [Compound 57-B] | > 1000 nM | < 10 nM
Cc1ccc(O)c(C)c1-c1nc(N2CC[C@@H](F)C2)cc2c(N)ncnc12 (single isomer, unassigned) [Compound 58-B] | 100 to 1000 nM | < 10 nM
Cc1ccc(O)c(C)c1-c1nc(N2CC[C@H](F)C2)cc2c(N)ncnc12 (single isomer, unassigned) [Compound 59-B] | 100 to 1000 nM | < 10 nM
Cc1cc2c(N)ncnc2c(-c2c(C)ccc(O)c2C)n1 [Compound 17-B, (S)-3-(4-Amino-6-methylpyrido[3,4-d]pyrimidin-8-yl)-2,4-dimethylphenol] | > 1000 nM | 10 to 100 nM
Cc1ccc(O)c(C)c1-c1nc(-c2ccncc2)cc2c(N)ncnc12 [Compound 32-B, (S)-3-(4-amino-6-(pyridin-4-yl)pyrido[3,4-d]pyrimidin-8-yl)-2,4-dimethylphenol] | 100 to 1000 nM | < 10 nM
[2H]C([2H])([2H])N(c1cc2c(N)ncnc2c(-c2c(C)ccc(O)c2C)n1)C1CC1 [Compound 60-B, (S)-3-(4-amino-6-(cyclopropyl(methyl-d3)amino)pyrido[3,4-d]pyrimidin-8-yl)-2,4-dimethylphenol] | 100 to 1000 nM | < 10 nM
Cc1ccc(O)c(C)c1-c1nc(N(C)[C@H]2[C@@H]3COC[C@@H]32)cc2c(N)ncnc12 [Compound 61-B, 3-((S)-6-(((1R,5S,6r)-3-oxabicyclo[3.1.0]hexan-6-yl)(methyl)amino)-4-aminopyrido[3,4-d]pyrimidin-8-yl)-2,4-dimethylphenol] | > 1000 nM | < 10 nM
CO[C@H]1C[C@@H](N(C)c2cc3c(N)ncnc3c(-c3c(C)ccc(O)c3C)n2)C1 [Compound 62-B, 3-((S)-4-amino-6-(((1s,3R)-3-methoxycyclobutyl)(methyl)amino)pyrido[3,4-d]pyrimidin-8-yl)-2,4-dimethylphenol] | > 1000 nM | < 10 nM
CO[C@H]1C[C@H](N(C)c2cc3c(N)ncnc3c(-c3c(C)ccc(O)c3C)n2)C1 [Compound 62-D, 3-((S)-4-amino-6-(((1r,3S)-3-methoxycyclobutyl)(methyl)amino)pyrido[3,4-d]pyrimidin-8-yl)-2,4-dimethylphenol] | > 1000 nM | < 10 nM
[2H]C([2H])([2H])N(c1cc2c(N)ncnc2c(-c2c(C)ccc(O)c2C)n1)[C@H]1[C@@H]2COC[C@@H]21 [Compound 63-B, 3-((S)-6-(((1R,5S,6r)-3-oxabicyclo[3.1.0]hexan-6-yl)(methyl-d3)amino)-4-aminopyrido[3,4-d]pyrimidin-8-yl)-2,4-dimethylphenol] | > 1000 nM | < 10 nM
Cc1ccc(O)c(C)c1-c1cc(C2=CCOCC2)nc2c(N)ncnc12 [Compound 71-B, (R)-3-(4-amino-6-(3,6-dihydro-2H-pyran-4-yl)pyrido[3,2-d]pyrimidin-8-yl)-2,4-dimethylphenol] | 100 to 1000 nM | < 10 nM
Cc1ccc(O)c(C)c1-c1cc(NC2CC2)nc2c(N)ncnc12 [Compound 72-B, (R)-3-(4-amino-6-(cyclopropylamino)pyrido[3,2-d]pyrimidin-8-yl)-2,4-dimethylphenol] | > 1000 nM | < 10 nM
Cc1ccc(O)c(C)c1-c1cc(N(C)C)nc2c(N)ncnc12 [Compound 73-B, (R)-3-(4-Amino-6-(dimethylamino)pyrido[3,2-d]pyrimidin-8-yl)-2,4-dimethylphenol] | > 1000 nM | 10 to 100 nM
Cc1cc(-c2c(C)ccc(O)c2C)c2ncnc(N)c2n1 [Compound 74-B, (R)-3-(4-amino-6-methylpyrido[3,2-d]pyrimidin-8-yl)-2,4-dimethylphenol] | > 1000 nM | 10 to 100 nM
Cc1ccc(O)c(C)c1-c1cc(N(C)C2CC2)nc2c(N)ncnc12 [Compound 75-B, (R)-3-(4-amino-6-(cyclopropyl(methyl)amino)pyrido[3,2-d]pyrimidin-8-yl)-2,4-dimethylphenol] | > 1000 nM | 10 to 100 nM
Cc1ccc(O)c(C)c1-c1cc(C2CC2)nc2c(N)ncnc12 [Compound 76-B, (R)-3-(4-amino-6-cyclopropylpyrido[3,2-d]pyrimidin-8-yl)-2,4-dimethylphenol] | > 1000 nM | < 10 nM
